According to patent US20250381277A1, “COMPOSITIONS AND METHODS FOR TREATMENT OF NEUROLOGICAL DISORDERS” (Dana-Farber Cancer Institute, Inc., priority 2022, published 2025):
Entries after “also recorded” stand apart in the source; their conditions may differ.

Test system: CD11c^+ microglia of 9-mo old 5XFAD and OPN-KO.5XFAD mice
Test: In vitro analysis of OPN-dependent inhibition of TREM2-lysosomal phagocytic pathway and Aβ degradation
Type: cell-based, mouse
Settings: rmOPN 12.5 μg/ml, anti-OPN Ab 10 μg/ml
Procedure: (a) Protocol of in vitro analysis of OPN-dependent inhibition of TREM2-lysosomal phagocytic pathway in 9-mo old 5XFAD and OPN-KO.5XFAD mice. […] (d) The MFI of FAM-Aβ 1-42 after 1 h's incubation was determined by flow cytometry in lysosomes of CD11c^+ microglia (CD11c^+CD68^+) and defined as Aβ MFI1h. MFI of retained FAM-Aβ in lysosomes of CD11c^+ microglia (CD11c^+CD68^+) 24 h after FAM-Aβ1-42 withdrawal was determined and defined as Aβ MFI24h. […] All data are presented as mean±s.e.m.
To test the impact of OPN on TREM2-lysosome activation and AR degradation, microglia enriched by anti-CD11b microbeads (purity >95%, Miltenyi) from 9-mo old 5XFAD and OPN-KO.5XFAD mice were seeded into 12-well plates at 3×10^5 cells/well in conventional microglia culture medium (DMEM-F12 with 10% fetal bovine serum+10% penicillin/streptomycin+10 ng/ml recombinant mouse M-CSF). Microglia were then pre-incubated with anti-OPN Ab (10 μg/ml) for 1 h followed by the incubation with rmOPN ([…]) overnight. Then FAM-labeled Aβ1-42 peptide (1 μM) was added into culture for 1 h. Mean fluorescence intensity (MFI) of FAM-Aβ1-42 in lysosomes of CD11c^+ microglia (CD11c^+CD68^+) after 1 h's incubation was determined by flow cytometry and defined as Aβ MFI1h. FAM-Aβ1-42 was then withdrawn, and cells were cultured for 24 h in the presence or absence with anti-OPN Ab (10 μg/ml) and/or rmOPN (12.5 μg/ml) before analysis of CD11c^+ microglial expression of TREM2, CD68 and MFI of retained FAM-Aβ1-42 in CD11c^+CD68^+ microglia (defined as Aβ MFI24h) by flow cytometry. Aβ degradation rate was calculated as (Aβ MFI1h−Aβ MFI24h)/Aβ MFI1h.

Substance: rmOPN: recombinant mouse OPN (osteopontin)
- Aβ degradation rate [(Aβ MFI1h−Aβ MFI24h)/Aβ MFI1h] in lysosomes of CD11c^+ microglia (FAM-Aβ1-42 1 μM): substantial reduction of Aβ degradation; also recorded: significantly reduced the Aβ degradation rate
- CD68 expression in CD11c^+ microglia (OPN-KO.5XFAD microglia): reduced expression of CD68; also recorded: significantly reduced
- TREM2 expression in CD11c^+ microglia (OPN-KO.5XFAD microglia): sharply inhibited; also recorded: sharply reduced
